Here are results for 36 compounds from patent publication US20140350014A1, “COMPOUNDS FOR INHIBITING THE INTERACTION OF BCL2 WITH BINDING PARTNERS” (NOVARTIS AG, priority 2011, published 2014).

SMILES strings stand for the structures. Bounds are passed on as bounds.

The target in experiment [1] is BCL-2 binding to BAD peptide (Homo sapiens, UniProt P10415). In words: BCL2 SPR solution inhibition assay, BAD peptide surface (Biacore A100). Conditions: read-out: BCL2_SPR IC50 BAD. From the text:
(§1) 33The present method includes utility of a Surface plasmon resonance (SPR)-based biosensor (Bia34core™′ GE Healthcare, Uppsala, Sweden) to characterize BCL-2 inhibitors. 35
(§2) 36Biacore™ utilizes the phenomenon of surface plasmon resonance (SPR) to detect and measure 37binding interactions. In a typical Biacore experiment, one of the interacting molecules (ligand) is i38mmobilized on a flexible dextran matrix while the interacting partner (analyte) is allowed to fl39ow across that surface. A binding interaction results in an increase in mass on the sensor surface 40and a corresponding direct change in the refractive index of the medium in the vicinity of the 41sensor surface. Changes in refractive index or signal are recorded in resonance units (R.U.) Signal 42changes due to association and dissociation of complexes are monitored in a non-invasive manne43r, continuously and in real-time, the results of which are reported in the form of a sensorgram.44
(§3) The SPR assay is con45figured to examine solution inhibition of BCL-2 binding to peptide derivatized sensor surfa46ces to generate IC50 values as a measure of inhibitor potency.
(§4) Biacore™ A100 (GE Healthcare, Uppsala, Sweden) was used to conduct all experiments reported herein. Sensor surface preparation and all interaction analyses experiments were performed at 25° C. Reagents were purchased from GE Healthcare. Running buffer containing 10 mM Hepes, pH7.4, 150 mM sodium chloride, 1.25 mM Dithiothreitol, 3% Dimethyl sulfoxide and 0.05% polysorbate 20 were utilized throughout all analyses.
(§5) Biotinylated BAK, BAD and NOXA peptides were diluted to 10 nM in running buffer and captured onto a sensor surface pre-derivatized with streptavidin (sensor chip SA) to peptide surface densities in the range 50-100 R.U. Peptide captured surfaces were blocked with 500 μM PEO2-Biotin.
(§6) Interaction analyses were performed by first equilibrating each sample within a 6 point three fold compound dilution series in the range 16 μM to […] with 56 nM BCL-2 for one hour during instrument start-up procedures. Protein compound mixtures were then injected over each peptide surface in parallel for 60 seconds at a flow-rate of 30 μL/min. 56 nM BCL-2 control samples were also prepared and run at regular intervals during the assay. Surface regeneration was performed at the end of each analysis cycle by two 30 second injections of 10 mM Glycine, pH 2.5, 1M Sodium Chloride, 0.05% polysorbate 20. Samples and control compound samples were run in duplicate and controls are also run at regular intervals during the assay to monitor surface and assay performance.
(§7) Data analyses are carried out using Biacore™ A100 evaluation software v1.1 to validate assay quality. Binding level report points were used relative to BCL-2 control samples to calculate % inhibition values for each compound protein mixture. […] The range of data shown in table 1 represents the high and low IC50 values obtained from multiple experiments.
For orientation: Surface plasmon resonance follows binding to a sensor surface in real time, without labels.

Experiment [2] addresses BCL-2 binding to BAK peptide (Homo sapiens, UniProt P10415). In words: BCL2 SPR solution inhibition assay, BAK peptide surface (Biacore A100). Conditions: read-out: BCL2_SPR IC50 BAK.
Description: as §1, §2, §3, §4, §5, §6, §7

Chain of BCL-2 binding to BAK peptide (P10415 whole entry): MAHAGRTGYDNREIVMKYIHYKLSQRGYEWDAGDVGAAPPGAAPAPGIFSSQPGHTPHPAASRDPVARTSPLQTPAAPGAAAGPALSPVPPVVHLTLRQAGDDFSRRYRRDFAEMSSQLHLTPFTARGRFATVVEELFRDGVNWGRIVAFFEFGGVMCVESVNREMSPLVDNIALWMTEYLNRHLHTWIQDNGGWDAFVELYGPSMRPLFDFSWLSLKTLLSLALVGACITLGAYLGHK
Chain of BCL-2 binding to BAD peptide (P10415 whole entry): as above

For orientation: IC50 means the concentration at which inhibition is half-maximal. Turning to `CCCCN(CCCC)C(=O)c1cc(C)n(-c2ccc(-c3ccc(Cl)c(C(N)=O)c3)cc2C(=O)N2Cc3ccccc3C[C@H]2CO)n1` [Example 34], the IC50 in experiment [1] lay within 600 to 623 nM; in experiment [2] it was 426 to 429 nM.

`CCCCN(CCCC)C(=O)c1cc(C)n(-c2ccc(-c3ccc(Cl)c(C(=O)NC)c3)cc2C(=O)N2Cc3ccccc3C[C@H]2CO)n1` [Example 35]: the IC50 in experiment [1] was in the range of 515 to 547 nM; in experiment [2], 357 to 366 nM.

As for `CCCCN(CCCC)C(=O)c1cc(C)n(-c2ccc(-c3cccc(OC(F)(F)F)c3)cc2C(=O)N2Cc3ccccc3C[C@H]2CO)n1` [Example 36], the figures for the IC50 in experiment [1] and in experiment [2] were 837 to 848 nM and 741 to 759 nM, respectively.

With `CCCCN(CCCC)C(=O)c1cc(C)n(-c2ccc(-c3ccc(C(=O)NCC)c(F)c3)cc2C(=O)N2Cc3ccccc3C[C@H]2CO)n1` [Example 37], the half-maximal inhibitory concentration (IC50) lay in the range of 312 to 319 nM in experiment [1] and 239 to 240 nM in experiment [2].

As to `CCCCN(CCCC)C(=O)c1cc(C)n(-c2ccc(-c3cccc(S(C)(=O)=O)c3)cc2C(=O)N2Cc3ccccc3C[C@H]2CO)n1` [Example 38], the half-maximal inhibitory concentration (IC50) fell in the range of 885 to 891 nM in experiment [1] and 632 to 656 nM in experiment [2].

For the compound `CCCCN(CCCC)C(=O)c1cc(C)n(-c2ccc(-c3ccc(Cl)c(C(=O)N(C)C)c3)cc2C(=O)N2Cc3ccccc3C[C@H]2CO)n1` [Example 39], the values for the IC50 in experiment [1] and in experiment [2] were 727 to 738 nM and 617 to 657 nM, respectively.

Turning to `CCCCN(CCCC)C(=O)c1cc(C)n(-c2ccc(-c3ccccc3C#N)cc2C(=O)N2Cc3ccccc3C[C@H]2CO)n1` [Example 40], the IC50 in experiment [1] fell in the range of 6490 to 7830 nM; in experiment [2], 4940 to 5880 nM.

Regarding `CCCCN(CCCC)C(=O)c1cc(C)n(-c2ccc(-c3c(C)noc3C)cc2C(=O)N2Cc3ccccc3C[C@H]2CO)n1` [Example 41], the values for the half-inhibitory concentration (IC50) in experiment [1] and in experiment [2] were 1930 to 2030 nM and 1800 to 2550 nM, respectively.

For `CCCCN(CCCC)C(=O)c1cc(C)n(-c2ccc(-c3cccc(F)c3Cl)cc2C(=O)N2Cc3ccccc3C[C@H]2CO)n1` [Example 42], the results for the IC50 in experiment [1] and in experiment [2] were 7080 to 10200 nM and 6370 to 7210 nM, respectively.

As to `CCCCN(CCCC)C(=O)c1cc(C)n(-c2ccc(-c3cc(C)cc(C)c3)cc2C(=O)N2Cc3ccccc3C[C@H]2CO)n1` [Example 43], the half-maximal inhibitory concentration (IC50) in experiment [1] was 593 to 614 nM; in experiment [2], 886 to 905 nM.

Consider `CCCCN(CCCC)C(=O)c1cc(C)n(-c2ccc(-c3ccc(F)c(F)c3)cc2C(=O)N2Cc3ccccc3C[C@H]2CO)n1` [Example 44], for which the 50% inhibitory concentration (IC50) is 2090 to 2180 nM in experiment [1] and 2500 to 2960 nM in experiment [2].

On to `CCCCN(CCCC)C(=O)c1cc(C)n(-c2ccc(-c3cccc(Cl)c3Cl)cc2C(=O)N2Cc3ccccc3C[C@H]2CO)n1` [Example 45], for which the IC50 in experiment [1] was 7160 to 7600 nM; in experiment [2] it was 7410 to 7540 nM.

As for `CCCCN(CCCC)C(=O)c1cc(C)n(-c2ccc(-c3ccc(OC)c4ccccc34)cc2C(=O)N2Cc3ccccc3C[C@H]2CO)n1` [Example 46], the IC50 in experiment [1] and in experiment [2] was greater than 16000 nM in each case.

Turning to `CCCCN(CCCC)C(=O)c1cc(C)n(-c2ccc(-c3cccc(C)c3)cc2C(=O)N2Cc3ccccc3C[C@H]2CO)n1` [Example 47], the IC50 in experiment [1] lay within 619 to 631 nM; in experiment [2], 503 to 589 nM.

Consider `CCCCN(CCCC)C(=O)c1cc(C)n(-c2ccc(-c3ccc(S(=O)(=O)N4CCOCC4)cc3)cc2C(=O)N2Cc3ccccc3C[C@H]2CO)n1` [Example 48], for which the half-inhibitory concentration (IC50) in experiment [1] is 953 to 964 nM; in experiment [2] it was 665 to 675 nM.

Consider `CCCCN(CCCC)C(=O)c1cc(C)n(-c2ccc(-c3cccc(OC)c3)cc2C(=O)N2Cc3ccccc3C[C@H]2CO)n1` [Example 49], for which the figures for the concentration for half-maximal inhibition (IC50) in experiment [1] and in experiment [2] were 896 to 978 nM and 626 to 696 nM, respectively.

For the compound `CCCCN(CCCC)C(=O)c1cc(C)n(-c2ccc(-c3ccc(C)c(C)c3)cc2C(=O)N2Cc3ccccc3C[C@H]2CO)n1` [Example 50], the IC50 in experiment [1] was in the range of 881 to 933 nM; in experiment [2], 793 to 883 nM.

As to `CCCCN(CCCC)C(=O)c1cc(C)n(-c2ccc(-c3ccc(OCC)nc3)cc2C(=O)N2Cc3ccccc3C[C@H]2CO)n1` [Example 51], the results for the IC50 in experiment [1] and in experiment [2] were 856 to 894 nM and 656 to 741 nM, respectively.

With `CCCCN(CCCC)C(=O)c1cc(C)n(-c2ccc(-c3ccc(OC)c(OC)c3)cc2C(=O)N2Cc3ccccc3C[C@H]2CO)n1` [Example 52], the IC50 in experiment [1] fell in the range of 567 to 629 nM; in experiment [2], 471 to 479 nM.

`CCCCN(CCCC)C(=O)c1cc(C)n(-c2ccc(-c3cccc4cnccc34)cc2C(=O)N2Cc3ccccc3C[C@H]2CO)n1` [Example 53]: the concentration for half-maximal inhibition (IC50) is 811 to 996 nM in experiment [1] and 607 to 779 nM in experiment [2].

As for `CCCCN(CCCC)C(=O)c1cc(C)n(-c2ccc(-c3cc(Cl)ccc3OC)cc2C(=O)N2Cc3ccccc3C[C@H]2CO)n1` [Example 54], the IC50 in experiment [1] was 938 to 952 nM; in experiment [2], 803 to 845 nM.

For `CCCCN(CCCC)C(=O)c1cc(C)n(-c2ccc(-c3ccc(OC(C)C)cc3)cc2C(=O)N2Cc3ccccc3C[C@H]2CO)n1` [Example 55], the half-maximal inhibitory concentration (IC50) in experiment [1] fell in the range of 722 to 764 nM; in experiment [2], 564 to 617 nM.

For the compound `CCCCN(CCCC)C(=O)c1cc(C)n(-c2ccc(-c3cc(OC)c(OC)c(OC)c3)cc2C(=O)N2Cc3ccccc3C[C@H]2CO)n1` [Example 56], the half-inhibitory concentration (IC50) is 284 to 296 nM in experiment [1] and 215 to 238 nM in experiment [2].

In the case of `CCCCN(CCCC)C(=O)c1cc(C)n(-c2ccc(-c3ccc4cc(OC)ccc4c3)cc2C(=O)N2Cc3ccccc3C[C@H]2CO)n1` [Example 57], the IC50 was 605 to 653 nM in experiment [1] and 556 to 689 nM in experiment [2].

For `CCCCN(CCCC)C(=O)c1cc(C)n(-c2ccc(-c3ccc(C(=O)NC)c(Cl)c3)cc2C(=O)N2Cc3ccccc3C[C@H]2CO)n1` [Example 58], the half-maximal inhibitory concentration (IC50) in experiment [1] fell in the range of 151 to 152 nM; in experiment [2], 111 to 112 nM.

As to `CCCCN(CCCC)C(=O)c1cc(C)n(-c2ccc(-c3cc(F)cc(OC(C)C)c3)cc2C(=O)N2Cc3ccccc3C[C@H]2CO)n1` [Example 59], the IC50 in experiment [1] was 635 to 652 nM; in experiment [2] it was 540 to 583 nM.

In the case of `CCCCN(CCCC)C(=O)c1cc(C)n(-c2ccc(-c3ccc(S(C)(=O)=O)cc3)cc2C(=O)N2Cc3ccccc3C[C@H]2CO)n1` [Example 60], the concentration for half-maximal inhibition (IC50) in experiment [1] is 608 to 612 nM; in experiment [2] it was 432 to 458 nM.

Consider `CCCCN(CCCC)C(=O)c1cc(C)n(-c2ccc(-c3cc(F)cc(C(=O)NC)c3)cc2C(=O)N2Cc3ccccc3C[C@H]2CO)n1` [Example 61], for which the IC50 in experiment [1] lay in the range of 458 to 474 nM; in experiment [2] it was 331 to 344 nM.

In the case of `CCCCN(CCCC)C(=O)c1cc(C)n(-c2ccc(-c3cccc(-c4nnc(C)o4)c3)cc2C(=O)N2Cc3ccccc3C[C@H]2CO)n1` [Example 62], the IC50 in experiment [1] lay in the range of 543 to 551 nM; in experiment [2] it was 763 to 799 nM.

In the case of `CCCCN(CCCC)C(=O)c1cc(C)n(-c2ccc(-c3ccc(Cl)cc3)cc2C(=O)N2Cc3ccccc3C[C@H]2CO)n1` [Example 63], the figures for the IC50 in experiment [1] and in experiment [2] were 2070 to 2140 nM and 1710 to 1850 nM, respectively.

For the compound `CCCCN(CCCC)C(=O)c1cc(C)n(-c2ccc(-c3ccc(F)cc3Cl)cc2C(=O)N2Cc3ccccc3C[C@H]2CO)n1` [Example 64], the concentration for half-maximal inhibition (IC50) fell in the range of 4460 to 4810 nM in experiment [1] and 3380 to 4000 nM in experiment [2].

As for `CCCCN(CCCC)C(=O)c1cc(C)n(-c2ccc(-c3c(OC)cccc3OC)cc2C(=O)N2Cc3ccccc3C[C@H]2CO)n1` [Example 65], the IC50 in experiment [1] was in the range of 10600 to 12300 nM; in experiment [2], 6340 to 6900 nM.

For the compound `CCCCN(CCCC)C(=O)c1cc(C)n(-c2ccc(-c3cc(C)cc(F)c3)cc2C(=O)N2Cc3ccccc3C[C@H]2CO)n1` [Example 66], the half-maximal inhibitory concentration (IC50) in experiment [1] lay in the range of 998 to 1060 nM; in experiment [2], 936 to 976 nM.

Consider `CCCCN(CCCC)C(=O)c1cc(C)n(-c2ccc(-c3ccc4ccccc4c3)cc2C(=O)N2Cc3ccccc3C[C@H]2CO)n1` [Example 67], for which the IC50 is 823 to 857 nM in experiment [1] and 785 to 804 nM in experiment [2].

Turning to `CCCCN(CCCC)C(=O)c1cc(C)n(-c2ccc(-c3ccc(N(C)C)cc3)cc2C(=O)N2Cc3ccccc3C[C@H]2CO)n1` [Example 68], the IC50 in experiment [1] was in the range of 1160 to 1210 nM; in experiment [2], 1050 to 1100 nM.

On to `CCCCN(CCCC)C(=O)c1cc(C)n(-c2ccc(-c3c(-c4ccccc4)noc3C)cc2C(=O)N2Cc3ccccc3C[C@H]2CO)n1` [Example 69], for which the IC50 was in the range of 5450 to 5510 nM in experiment [1] and 4420 to 4570 nM in experiment [2].
